# Laboratory results reported in patent publication US20260130933A1, “PHARMACEUTICAL COMPOSITION FOR PREVENTION OR TREATMENT OF NEPHROPATHY AND/OR DIABETES MELLITUS, COMPRISING ENAVOGLIFLOZIN” (DAEWOONG PHARMACEUTICAL CO., LTD., priority 2022, published 2026).
# Assay: Example 1: phase 3 trial, enavogliflozin 0.3 mg once a day as monotherapy vs placebo for 24 weeks in patients with type 2 diabetes (HbA1c, FPG, C-peptide, body weight, lipids, blood pressure, HOMA, UACR, UGCR, adiponectin, leptin, safety)
# Format: in vivo, human
# Details: for Adiponectin, Mean (SD) / Adiponectin, Median / HOMA-IR, Mean (SD) / HOMA-IR, Median / HOMA-β, Mean (SD) / HOMA-β, Median / Leptin, Mean (SD) / Leptin, Median / UACR, Mean (SD) / UACR, Median / UGCR, Mean (SD) / UGCR, Median / Change from baseline in HOMA-IR, ANCOVA LS mean (SE) / Change from baseline in HOMA-IR, Mean (SD) / Change from baseline in HOMA-IR, Median / Change from baseline in HOMA-β, ANCOVA LS mean (SE) / Change from baseline in HOMA-β, Mean (SD) / Change from baseline in HOMA-β, Median / Change from baseline in UACR, ANCOVA LS mean (SE) / Change from baseline in UACR, Mean (SD) / Change from baseline in UACR, Median / Change from baseline in UGCR, ANCOVA LS mean (SE) / Change from baseline in UGCR, Mean (SD) / Change from baseline in UGCR, Median / Change from baseline in adiponectin, ANCOVA LS mean (SE) / Change from baseline in adiponectin, Mean (SD) / Change from baseline in adiponectin, Median / Change from baseline in leptin, ANCOVA LS mean (SE) / Change from baseline in leptin, Mean (SD) / Change from baseline in leptin, Median / Change from baseline in HOMA-IR, ANCOVA LS mean difference / Change from baseline in HOMA-β, ANCOVA LS mean difference / Change from baseline in UACR, ANCOVA LS mean difference / Change from baseline in UGCR, ANCOVA LS mean difference / Change from baseline in adiponectin, ANCOVA LS mean difference / Change from baseline in leptin, ANCOVA LS mean difference: LOCF, full analysis set; for Adiponectin, Mean (SD) / Adiponectin, Median / HOMA-IR, Mean (SD) / HOMA-IR, Median / HOMA-β, Mean (SD) / HOMA-β, Median / Leptin, Mean (SD) / Leptin, Median / UACR, Mean (SD) / UACR, Median / UGCR, Mean (SD) / UGCR, Median / Change from baseline in HOMA-IR, ANCOVA LS mean (SE) / Change from baseline in HOMA-IR, Mean (SD) / Change from baseline in HOMA-IR, Median / Change from baseline in HOMA-β, ANCOVA LS mean (SE) / Change from baseline in HOMA-β, Mean (SD) / Change from baseline in HOMA-β, Median / Change from baseline in UACR, ANCOVA LS mean (SE) / Change from baseline in UACR, Mean (SD) / Change from baseline in UACR, Median / Change from baseline in UGCR, ANCOVA LS mean (SE) / Change from baseline in UGCR, Mean (SD) / Change from baseline in UGCR, Median / Change from baseline in adiponectin, ANCOVA LS mean (SE) / Change from baseline in adiponectin, Mean (SD) / Change from baseline in adiponectin, Median / Change from baseline in leptin, ANCOVA LS mean (SE) / Change from baseline in leptin, Mean (SD) / Change from baseline in leptin, Median: 0.3 mg; for Change from baseline in HOMA-IR, ANCOVA LS mean difference / Change from baseline in HOMA-β, ANCOVA LS mean difference / Change from baseline in UACR, ANCOVA LS mean difference / Change from baseline in UGCR, ANCOVA LS mean difference / Change from baseline in adiponectin, ANCOVA LS mean difference / Change from baseline in leptin, ANCOVA LS mean difference: 0.3 mg vs placebo
# Protocol: When a subject voluntarily gave written consent to participate in this clinical trial, a screening test was conducted. […] However, when the administration of a hypoglycemic agent was interrupted before the clinical trial Visit 1 (screening), at least an 8-week washout period, including the discontinuation period, was required, and during this period, a stable diet and exercise program was followed. Naïve patients were screened without a separate washout period, and the criteria for naïve patients were defined as patients who had not been administered hypoglycemic agents within 24 weeks prior to the date of obtaining written consent. […] In addition, they were instructed to maintain regular exercise and dietary control starting from 8 weeks prior to screening without changing their daily life patterns during the clinical trial period.
smiles,measurement,setting,value
"OC[C@H]1O[C@@H](c2cc(Cc3ccc(C4CC4)cc3)c(Cl)c3c2CCO3)[C@H](O)[C@@H](O)[C@@H]1O [Enavogliflozin, (2S,3R,4R,5S,6R)-2-(7-chloro-6 (4-cyclopropylbenzyl)-2,3-dihydrobenzofuran-4-yl)-6-(hydroxymethyl)tetrahydro-2H-pyran-3,4,5-triol]",Occurrence rates of adverse events or adverse drug reactions compared to the control,"24 weeks, vs placebo",no statistically significant differences
same,"Adiponectin, Mean (SD)",Baseline,7.79 µg/mL
same,"Adiponectin, Median",Baseline,6.22 µg/mL
same,"HOMA-IR, Mean (SD)",Baseline,3.47
same,"HOMA-IR, Median",Baseline,2.67
same,"HOMA-β, Mean (SD)",Baseline,46.40
same,"HOMA-β, Median",Baseline,36.25
same,"Leptin, Mean (SD)",Baseline,11.16 ng/mL
same,"Leptin, Median",Baseline,6.94 ng/mL
same,"UACR, Mean (SD)",Baseline,28200 mg/kg
same,"UACR, Median",Baseline,10.50 g/kg
same,"UGCR, Mean (SD)",Baseline,1.42 mg/mg
same,"UGCR, Median",Baseline,10.11 mg/mg
same,"Adiponectin, Mean (SD)",Week 6,7.91 µg/mL
same,"Adiponectin, Median",Week 6,6.67 µg/mL
same,"Change from baseline in HOMA-IR, ANCOVA LS mean (SE)",Week 6,−1.75
same,"Change from baseline in HOMA-IR, Mean (SD)",Week 6,−1.53
same,"Change from baseline in HOMA-IR, Median",Week 6,−0.96
same,"Change from baseline in HOMA-β, ANCOVA LS mean (SE)",Week 6,3.20
same,"Change from baseline in HOMA-β, Mean (SD)",Week 6,3.95
same,"Change from baseline in HOMA-β, Median",Week 6,3.10
same,"Change from baseline in UACR, ANCOVA LS mean (SE)",Week 6,1.45 g/kg
same,"Change from baseline in UACR, Mean (SD)",Week 6,3660 mg/kg
same,"Change from baseline in UACR, Median",Week 6,0.80 g/kg
same,"Change from baseline in UGCR, ANCOVA LS mean (SE)",Week 6,55.38 mg/mg
same,"Change from baseline in UGCR, Mean (SD)",Week 6,53.23 mg/mg
same,"Change from baseline in UGCR, Median",Week 6,50.85 mg/mg
same,"Change from baseline in adiponectin, ANCOVA LS mean (SE)",Week 6,0.22 µg/mL
same,"Change from baseline in adiponectin, Mean (SD)",Week 6,0.31 µg/mL
same,"Change from baseline in adiponectin, Median",Week 6,0.48 µg/mL
same,"Change from baseline in leptin, ANCOVA LS mean (SE)",Week 6,-2.82 ng/mL
same,"Change from baseline in leptin, Mean (SD)",Week 6,-2.48 ng/mL
same,"Change from baseline in leptin, Median",Week 6,-1.13 ng/mL
same,"HOMA-IR, Mean (SD)",Week 6,1.96
same,"HOMA-IR, Median",Week 6,1.62
same,"HOMA-β, Mean (SD)",Week 6,50.65
same,"HOMA-β, Median",Week 6,40.10
same,"Leptin, Mean (SD)",Week 6,8.61 ng/mL
same,"Leptin, Median",Week 6,5.75 ng/mL
same,"UACR, Mean (SD)",Week 6,32120 mg/kg
same,"UACR, Median",Week 6,11.30 g/kg
same,"UGCR, Mean (SD)",Week 6,54.67 mg/mg
same,"UGCR, Median",Week 6,51.06 mg/mg
same,"Change from baseline in HOMA-IR, ANCOVA LS mean difference",Week 6,−1.81
same,"Change from baseline in HOMA-β, ANCOVA LS mean difference",Week 6,3.30
same,"Change from baseline in UACR, ANCOVA LS mean difference",Week 6,7.96 g/kg
same,"Change from baseline in UGCR, ANCOVA LS mean difference",Week 6,52.97 mg/mg
same,"Change from baseline in adiponectin, ANCOVA LS mean difference",Week 6,0.26 µg/mL
same,"Change from baseline in leptin, ANCOVA LS mean difference",Week 6,-2.89 ng/mL
same,"Adiponectin, Mean (SD)",Week 12,8.57 µg/mL
same,"Adiponectin, Median",Week 12,6.59 µg/mL
same,"Change from baseline in HOMA-IR, ANCOVA LS mean (SE)",Week 12,−1.60
same,"Change from baseline in HOMA-IR, Mean (SD)",Week 12,−1.50
same,"Change from baseline in HOMA-IR, Median",Week 12,−1.09
same,"Change from baseline in HOMA-β, ANCOVA LS mean (SE)",Week 12,13.51
same,"Change from baseline in HOMA-β, Mean (SD)",Week 12,12.44
same,"Change from baseline in HOMA-β, Median",Week 12,7.15
same,"Change from baseline in UACR, ANCOVA LS mean (SE)",Week 12,-4.45 g/kg
same,"Change from baseline in UACR, Mean (SD)",Week 12,-7760 mg/kg
same,"Change from baseline in UACR, Median",Week 12,0.60 g/kg
same,"Change from baseline in UGCR, ANCOVA LS mean (SE)",Week 12,52.58 mg/mg
same,"Change from baseline in UGCR, Mean (SD)",Week 12,52.43 mg/mg
same,"Change from baseline in UGCR, Median",Week 12,51.21 mg/mg
same,"Change from baseline in adiponectin, ANCOVA LS mean (SE)",Week 12,0.94 µg/mL
same,"Change from baseline in adiponectin, Mean (SD)",Week 12,0.78 µg/mL
same,"Change from baseline in adiponectin, Median",Week 12,0.65 µg/mL
same,"Change from baseline in leptin, ANCOVA LS mean (SE)",Week 12,-2.35 ng/mL
same,"Change from baseline in leptin, Mean (SD)",Week 12,-2.38 ng/mL
same,"Change from baseline in leptin, Median",Week 12,-1.15 ng/mL
same,"HOMA-IR, Mean (SD)",Week 12,1.97
same,"HOMA-IR, Median",Week 12,1.53
same,"HOMA-β, Mean (SD)",Week 12,58.83
same,"HOMA-β, Median",Week 12,42.30
same,"Leptin, Mean (SD)",Week 12,8.78 ng/mL
same,"Leptin, Median",Week 12,6.26 ng/mL
same,"UACR, Mean (SD)",Week 12,20430 mg/kg
same,"UACR, Median",Week 12,11.15 g/kg
same,"UGCR, Mean (SD)",Week 12,53.85 mg/mg
same,"UGCR, Median",Week 12,51.70 mg/mg
same,"Change from baseline in HOMA-IR, ANCOVA LS mean difference",Week 12,−1.72
same,"Change from baseline in HOMA-β, ANCOVA LS mean difference",Week 12,12.09
same,"Change from baseline in UACR, ANCOVA LS mean difference",Week 12,-15.16 g/kg
same,"Change from baseline in UGCR, ANCOVA LS mean difference",Week 12,51.21 mg/mg
same,"Change from baseline in adiponectin, ANCOVA LS mean difference",Week 12,0.67 µg/mL
same,"Change from baseline in leptin, ANCOVA LS mean difference",Week 12,-3.17 ng/mL
same,"Adiponectin, Mean (SD)",Week 18,8.62 µg/mL
same,"Adiponectin, Median",Week 18,6.76 µg/mL
same,"Change from baseline in HOMA-IR, ANCOVA LS mean (SE)",Week 18,−1.55
same,"Change from baseline in HOMA-IR, Mean (SD)",Week 18,−1.48
